Source: patent US8173133B2, “Acyl pseudodipeptides which carry a functionalized auxiliary arm” (OM Pharma, priority 1999, dated 2012)

Experiments:
[1] = tested on: MxA protein; test: MxA protein induction in dendritic cells (Western blot); type: cell-based, human; details: 1 μg/ml; after 24 hr and 48 hours; FIGS. 77, 78
Method: The ability of products of the invention to induce production of antiviral MxA protein by predendritic cells has been assessed. MxA production by cells was measured after an SDS-PAGE electrophoretic separation by a Western Blot assay
Extraction and analysis of protein was conducted as follows: cells were harvested, then washed 3 times with PBS (phosphate buffered saline) and lyzed with a 100 Mm Tris-HCl buffer, 150 mM NaCl, 5 mM EDTA, 1% Triton-100 containing 1 mM PMSF (phenylmethylsulphonyl fluoride) and 1 μ/ml of pepstatin as protease inhibitors. Lysis was carried out at a density of 10^6 cells for 100 μl of (5×) buffer containing 60 mM Tris-HCl (pH 6.8), 10% glycerol, 2% SDS, 14.4 mM 2-mercaptoethanol and 0.1% bromophenol). Samples were heated up to 95° C. for 5 min. in sealed Eppendorf tubes. Electrophoresis was performed on a 10 cm×10 cm 12% acrylamide minigel by running a sample having the same number of cells. Migration was effected with the following buffer: 25 mM Tris, 192 mM glycine, 0.1% SDS, pH 8.3. […]
Non specific bonding sites on the membrane were blocked with 5% skimmed milk in TBS (10 mM Tris-HCl, 150 Mm NaCl, pH 7.4) and allowing to stand for 1 hour at room temperature. […] In this system, HRP catalyzes a luminol-mediated chemiluminescent reaction which can be detected on a photographic film. […]

[2] = tested on: Leishmania LmCPb antigen; test: Leishmania LmCPb immunization: IL-4 and γ IFN in lymph node cell supernatant (ELISA); type: in vivo, CBA mice; details: lymph node cell cultures challenged with the parasite antigen
Method: CBA mice were administered through the tail a single subcutaneous injection (100 μl) of Leishmania parasite LmCPb antigen (3 μg per mouse)±adjuvant. […] Eleven days after injection, inguinal and periaortic lymph node cells (2 groups of 3 mice each) were cultured in triplicate in presence of purified LmCPb antigen or whole extract of the parasite (amastigote). At day 4, a supernatant sample is withdrawn and stored at −20° C. for IL-4 and γ IFN assay. Finally, tritiated thymidine (^3H-TdR) is added to the cultures to measure the proliferation reaction.
Cytokine assay is carried out by a sandwich ELISA assay (OptEIA®) kits for γ IFN and IL-4, BD, PharMingen, Basel, Switzerland) and the proliferation response is determined by measuring thymidine take-up (^3H-TdR). ^3H-TdR take-up given in cpm as the arithmetic mean value±standard deviation ([…] of 3 mice each) and IL-4 concentration given in pg/ml are individually reported for each pool of 3 mice as the arithmetic mean of two measurements (cytokine assay).
An LmCPb stock solution is prepared at a concentration of 150 μg/ml in PBS
Adjuvants: The stock solution of OM-294-MP-AC is prepared at a concentration of 0.9 mg/ml in water for injection, with addition of 0.1% triethanolamine.
Antigen-adjuvant mixture: Adjuvant preparation (4 volumes), which had been adjusted to an adequate final concentration in sterile PBS, is mixed just prior to injection with the antigen stock solution (1 volume).

`CCCCCCCCCCCC(=O)O[C@H](CCCCCCCCCCC)CC(=O)NC(CCOP(=O)(O)O)C(=O)NCCCC(COC(=O)CCCCC(O)CO)NC(=O)C[C@H](O)CCCCCCCCCCC` (stereo partly drawn) [OM-197-FV6, 3-[(R)-dodecanoyloxytetradecanoylamino]-4oxo-5-aza-9-[(R)-3-hydroxytetradecanoylamino]-decan-1,10-diol 1-dihydrogenphate 10-(6,7-dihydroxyheptanoate)] was tested. Which “production of MxA protein” value [1] did it give?
The value was “significant rise”.

For `CCCCCCCCCCCC(=O)O[C@H](CCCCCCCCCCC)CC(=O)N[C@H](CC(=O)O)C(=O)NCCC[C@H](COC(=O)CCCCCN)NC(=O)C[C@H](O)CCCCCCCCCCC` [OM-197-MC-AC, N—[(R)-3-dodecanoyloxytetradecanoyl]-D-aspartic acid, α-N-{(4R)-5-(6-aminohexanoyloxy)-4-[(R)-3-hydroxytetradecanoylamino]pentyl}amide], which “γ IFN production” value [2] is on record?
Its value is < 100 pg/mL.
